ChEMBL document CHEMBL1201862, “PubChem BioAssay data set” (2004)
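96-well plates; 48 h exposure; 5 concentrations. Endpoints by linear interpolation between flanking doses. Not reached: highest tested concentration assigned. GI50: concentration for 50% inhibition of growth.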 The source made the active and inactive calls. No stated cut-off is given here; in the data, active = GI50 up to about 1.1 µM and inactive = higher.

Columns and labels:
Experiment in all cases: NCI anticancer screen, dose series, 48 h
SK-MEL-5 = tested on: SK-MEL-5
SN12C = tested on: SN12C
SK-MEL-2 = tested on: SK-MEL-2
CCRF-CEM = tested on: CCRF-CEM
SF-268 = tested on: SF-268
IGROV-1 = tested on: IGROV-1
SW-620 = tested on: SW-620
TK-10 = tested on: TK-10
OVCAR-8 = tested on: OVCAR-8
NCI-H522 = tested on: NCI-H522
MOLT-4 = tested on: MOLT-4
K562 = tested on: K562
HOP-92 = tested on: HOP-92
HCT-15 = tested on: HCT-15
A549 = tested on: A549
KM-20L2 = tested on: KM-20L2
MDA-MB-435 = tested on: MDA-MB-435
T47D = tested on: T47D
BT-549 = tested on: BT-549
NCI/ADR-RES = tested on: NCI/ADR-RES

SMILES | GI50 (SK-MEL-5) | GI50 (SN12C) | GI50 (SK-MEL-2) | GI50 (CCRF-CEM) | GI50 (SF-268) | GI50 (IGROV-1) | GI50 (SW-620) | GI50 (TK-10) | GI50 (OVCAR-8) | GI50 (NCI-H522) | GI50 (MOLT-4) | GI50 (K562) | GI50 (HOP-92) | GI50 (HCT-15) [µM] | GI50 (A549) | GI50 (KM-20L2) | GI50 (MDA-MB-435) | GI50 (T47D) | GI50 (BT-549) | GI50 (NCI/ADR-RES)
COc1ccc2c(c1)CCc1c-2nc2cc3c(cc2c1O)OCO3 | > 100 µM (inactive) | > 100 µM (inactive) | > 100 µM (inactive) | > 100 µM (inactive) | > 100 µM (inactive) | > 100 µM (inactive) | > 100 µM (inactive) | > 100 µM (inactive) | > 100 µM (inactive) | > 100 µM (inactive) | > 100 µM (inactive) | > 100 µM (inactive) | > 100 µM (inactive) | > 100 | > 100 µM (inactive) | > 100 µM (inactive) | – | – | – | –
CN(C)CCC(=O)N1C/C(=C/c2ccccc2)C(=O)/C(=C\c2ccccc2)C1 | 1.45 µM (inactive) | 1.25 µM (inactive) | 2.95 µM (inactive) | 0.191 µM (active) | 2.74 µM (inactive) | 2.59 µM (inactive) | 0.275 µM (active) | 8.15 µM (inactive) | 1.03 µM (active) | 0.301 µM (active) | 0.313 µM (active) | 0.182 µM (active) | 7.11 µM (inactive) | 1.05 | 4.7 µM (inactive) | 0.998 µM (active) | 1.43 µM (inactive) | 4.82 µM (inactive) | 0.883 µM (active) | –
O=C(NC12CC3CC(CC(C3)C1)C2)C(=O)c1c[nH]c2ccc(Br)cc12 | 41 µM (inactive) | 18.5 µM (inactive) | 56.9 µM (inactive) | 3.86 µM (inactive) | 9.59 µM (inactive) | 45.5 µM (inactive) | 25 µM (inactive) | 28.8 µM (inactive) | 18.1 µM (inactive) | 56 µM (inactive) | 5.41 µM (inactive) | 8.39 µM (inactive) | 20.8 µM (inactive) | 5.79 | 14.4 µM (inactive) | 4.54 µM (inactive) | – | – | – | –
COc1cc2c(c(OC)c1OC)-c1ccc(OC)c(=O)cc1C(NC(=O)c1ccc(N=[N+]=[N-])cc1)CC2 (centres undefined) | 0.0264 µM (active) | 0.0514 µM (active) | 0.0327 µM (active) | 0.0316 µM (active) | 0.0557 µM (active) | 0.0466 µM (active) | 0.0312 µM (active) | 13 µM (inactive) | 0.0335 µM (active) | 0.0175 µM (active) | 0.0411 µM (active) | 0.0246 µM (active) | 0.0396 µM (active) | 0.111 | 0.0408 µM (active) | 0.0188 µM (active) | 0.0134 µM (active) | > 100 µM (inactive) | 0.0507 µM (active) | –
C/C(=C\CNc1ncnc2c1ncn2C1CCCCO1)COP(=O)(O)O (centres undefined) | > 100 µM (inactive) | > 100 µM (inactive) | > 100 µM (inactive) | > 100 µM (inactive) | > 100 µM (inactive) | > 100 µM (inactive) | > 100 µM (inactive) | > 100 µM (inactive) | > 100 µM (inactive) | > 100 µM (inactive) | > 100 µM (inactive) | > 100 µM (inactive) | > 100 µM (inactive) | > 100 | > 100 µM (inactive) | > 100 µM (inactive) | – | – | – | –
CC[C@@]1(OC(=O)CN(C)C)C(=O)OCc2c1cc1n(c2=O)Cc2cc3ccccc3nc2-1 | 0.0328 µM (active) | < 0.0191 µM (active) | 0.701 µM (active) | 0.00256 µM (active) | < 0.0131 µM (active) | 0.242 µM (active) | 0.098 µM (active) | 1.93 µM (inactive) | 0.0596 µM (active) | 0.255 µM (active) | 0.00295 µM (active) | 0.061 µM (active) | 0.119 µM (active) | 0.228 | 0.0365 µM (active) | 0.249 µM (active) | 0.194 µM (active) | – | 0.0536 µM (active) | 0.0421 µM (active)
CC(=O)NC(Cc1ccccc1)C(=S)N1CCCC1 (centres undefined) | > 100 µM (inactive) | > 100 µM (inactive) | > 100 µM (inactive) | > 100 µM (inactive) | > 100 µM (inactive) | > 100 µM (inactive) | > 100 µM (inactive) | > 100 µM (inactive) | > 100 µM (inactive) | > 100 µM (inactive) | > 100 µM (inactive) | > 100 µM (inactive) | > 80.5 µM (inactive) | > 100 | > 100 µM (inactive) | > 100 µM (inactive) | – | – | – | –
CN(C)[C@@H]1C(O)=C(C(=O)NCNc2nc3[nH]nnc3c(=O)[nH]2)C(=O)[C@@]2(O)C(O)=C3C(=O)c4c(O)cccc4[C@@](C)(O)[C@H]3C[C@@H]12 | 1.9 µM (inactive) | 0.743 µM (active) | 0.139 µM (active) | 0.228 µM (active) | 1.01 µM (active) | 15.9 µM (inactive) | 0.471 µM (active) | 2.3 µM (inactive) | 0.817 µM (active) | 20.4 µM (inactive) | 0.288 µM (active) | 0.402 µM (active) | 1.3 µM (inactive) | 42.5 | 55.3 µM (inactive) | 16.2 µM (inactive) | 0.452 µM (active) | 5.37 µM (inactive) | 6.7 µM (inactive) | 2.37 µM (inactive)
Cc1c2ccncc2c(C)c2c1[nH]c1ccc(Cl)cc12 | 4.75 µM (inactive) | 3.41 µM (inactive) | 3.51 µM (inactive) | 1.36 µM (inactive) | – | 2.86 µM (inactive) | 1.52 µM (inactive) | 6.07 µM (inactive) | 1.22 µM (inactive) | 2.36 µM (inactive) | – | 1.62 µM (inactive) | – | 1.75 | – | 2.56 µM (inactive) | – | – | – | 1.22 µM (inactive)
